Results: patent US10906887B2, “Amino compounds for treatment of immune and inflammatory disorders” (Achillion Pharmaceuticals, Inc., priority 2015, dated 2021)

Target: T1, Human Factor D (Homo sapiens, UniProt P00746)
T1 construct: purified from human serum
Experiment: Human Factor D Assay
Format: biochemical
Conditions: Human Factor D 80 nM, substrate Z-L-Lys-SBzl, assay of Example 12
Description: Human Factor D (purified from human serum, Complement Technology, Inc.) at 80 nM final concentration was incubated with test compound at various concentrations for 5 minutes at room temperature in 50 mM Tris, 1M NaCl, pH 7.5. A synthetic substrate Z-L-Lys-SBzl and DTNB (Ellman's reagent) are added to final concentrations of 100 μM each. Absorbance at 405 nm (A405) was recorded at 30 second intervals for 30 minutes using a microplate spectrophotometer. IC50 values are calculated by nonlinear regression of complement Factor D reaction rates as a function of test compound concentration.
The assay of Example 12 was used to determine the IC50's of the compounds. Other standard Factor D inhibition assays are also available.

T1 sequence (P00746 26-253): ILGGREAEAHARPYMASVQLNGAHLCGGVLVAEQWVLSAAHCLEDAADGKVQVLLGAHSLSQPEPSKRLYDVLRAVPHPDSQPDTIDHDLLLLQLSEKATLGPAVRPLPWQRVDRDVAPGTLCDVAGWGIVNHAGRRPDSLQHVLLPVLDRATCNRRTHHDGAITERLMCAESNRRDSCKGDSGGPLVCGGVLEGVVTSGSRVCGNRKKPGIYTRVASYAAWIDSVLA

Cc1cccc(NC(=O)[C@@H]2CC=CCN2C(=O)Cn2cc(C(N)=O)c3cc(Nc4cccnn4)ccc32)n1 [compound 1, (S)-1-(2-(6-((6-methylpyridin-2-yl)carbamoyl)-5,6-dihydropyridin-1(2H)-yl)-2-oxoethyl)-5-(pyridazin-3-ylamino)-1H-indole-3-carboxamide]
IC50: > 10 µM
